Values after ≈ are worked out from the molar mass of the structure shown. Like-named read-outs stand apart in the source and are kept apart here.
Legend:
[1] = test system: Bacillus subtilis MTCC 441; test: In vitro antibacterial activity (MIC, CLSI M07-A10 dilution); format: cell-based; conditions: MTCC441
[2] = test system: Enterococcus faecium ATCC 51559 (VRE resistant); test: as above; format: cell-based
[3] = test system: Staphylococcus aureus ATCC 29213; test: as above; format: cell-based; conditions: ATCC29213
[4] = target: T1, DNA gyrase from E. coli (Escherichia coli, UniProt P0AES4+P0AES6); test: Inhibitory activities on E. coli DNA Gyrase (Inspiralis assay); format: biochemical
T1 construct: purchased Inspiralis
Protocol: Inhibitory potencies were investigated utilizing the Inspiralis assay on streptavidin-coated 96-well microtiter plates. First, the plates were rehydrated with buffer (20 mM Tris-HCl with pH 7.6, 0.01% w/v BSA, 0.05% v/v Tween 20, 137 mM NaCl) and the biotinylated oligonucleotide was then immobilized. After washing off the unbound oligonucleotide, the enzyme test was performed. The reaction volume of 30 μL in buffer (35 mM Tris×HCl with pH 7.5, 4 mM MgCl2, 24 mM KCl, 2 mM DTT, 1.8 mM spermidine, 1 mM ATP, 6.5% w/v glycerol, 0.1 mg/mL albumin) contained 1.5 U of DNA gyrase from E. coli, 0.75 μg of relaxed pNO1 plasmid, and 3 μL solution of the inhibitor in 10% DMSO and 0.008% Tween 20. Reaction solutions were incubated at 37° C. for 30 min. After that, the TF buffer (50 mM NaOAc with pH 5.0, 50 mM NaCl and 50 mM MgCl2) was added to terminate the enzymatic reaction. After additional incubation for 30 min at rt, during which biotinoligonucleotide-plasmid triplex was formed, the unbound plasmid was washed off using TF buffer and SybrGOLD in T10 buffer (10 mM Tris HCl with pH 8.0 and 1 mM EDTA) was added. The fluorescence was measured with a microplate reader (BioTek Synergy H4, excitation: 485 nm, emission: 535 nm). Initial screening was done at 100 or 10 μM concentration of inhibitors. […] GraphPad Prism software was used to calculate the IC50 values. […]

[5] = test system: Klebsiella pneumonia MTCC 618; test: In vitro antibacterial activity (MIC, CLSI M07-A10 dilution); format: cell-based; conditions: Klebsiella pneumoniae, MTCC618
[6] = test system: Escherichia coli MTCC 443; test: as above; format: cell-based; conditions: MTCC443
[7] = test system: Pseudomonas aeruginosa MTCC 741; test: as above; format: cell-based; conditions: MTCC741
[8] = test system: Staphylococcus aureus ATCC BAA-1556 (MERSA resistant); test: as above; format: cell-based; conditions: ATCCBAA1556
[9] = test system: Enterococcus faecium ATCC 35667; test: as above; format: cell-based; conditions: ATCC35667
[10] = test system: Mycobacterium tuberculosis H37Rv strain; test: Anti-tubercular properties, alamar blue microplate MIC; format: cell-based; conditions: 168 h, M. tuberculosis H37Rv, seven days incubation at 37° C., read-out: anti-mycobacterial activity (MIC)
[11] = test system: Staphylococcus epidermidis; test: In vitro antibacterial activity (MIC, CLSI M07-A10 dilution); format: cell-based

T1 sequence (P0AES4 whole entry, one chain of several): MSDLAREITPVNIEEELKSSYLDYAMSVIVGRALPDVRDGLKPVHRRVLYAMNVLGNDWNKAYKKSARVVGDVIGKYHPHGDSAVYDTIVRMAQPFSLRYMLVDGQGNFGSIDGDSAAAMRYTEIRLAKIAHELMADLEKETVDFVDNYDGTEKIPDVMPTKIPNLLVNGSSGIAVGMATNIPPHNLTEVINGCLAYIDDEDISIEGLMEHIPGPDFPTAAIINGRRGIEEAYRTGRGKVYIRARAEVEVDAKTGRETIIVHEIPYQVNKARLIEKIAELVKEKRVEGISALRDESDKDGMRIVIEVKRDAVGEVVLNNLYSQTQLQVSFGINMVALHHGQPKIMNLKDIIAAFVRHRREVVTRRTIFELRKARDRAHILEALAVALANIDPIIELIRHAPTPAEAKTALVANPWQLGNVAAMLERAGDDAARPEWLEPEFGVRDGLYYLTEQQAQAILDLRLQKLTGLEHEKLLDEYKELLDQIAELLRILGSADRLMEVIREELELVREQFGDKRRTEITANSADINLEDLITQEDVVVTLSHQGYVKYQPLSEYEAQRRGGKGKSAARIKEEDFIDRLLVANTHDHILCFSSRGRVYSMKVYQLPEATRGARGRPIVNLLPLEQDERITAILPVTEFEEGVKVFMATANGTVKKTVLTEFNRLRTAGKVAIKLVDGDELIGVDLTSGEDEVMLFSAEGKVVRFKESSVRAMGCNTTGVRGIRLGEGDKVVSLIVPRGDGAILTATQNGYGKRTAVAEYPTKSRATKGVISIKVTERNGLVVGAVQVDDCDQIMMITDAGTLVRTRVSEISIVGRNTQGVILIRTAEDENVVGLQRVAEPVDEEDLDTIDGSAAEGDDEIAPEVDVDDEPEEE

Row | SMILES | MIC ([1]; Bacillus subtilis MTCC 441, read-out: MIC) [µg/mL] | MIC ([2]; Enterococcus faecium ATCC 51559 (VRE resistant), read-out: MIC) [µg/mL] | MIC [3] [µg/mL] | IC50 [4] [nM] | MIC ([5]; Klebsiella pneumonia MTCC 618, read-out: MIC) [µg/mL] | MIC [6] [µg/mL] | MIC ([7]; Pseudomonas aeruginosa MTCC 741, read-out: MIC) [µg/mL] | MIC [8] [µg/mL] | MIC ([9]; Enterococcus faecium ATCC 35667, read-out: MIC) [µg/mL] | MIC [10] [µg/mL] | MIC [11] [µg/mL] | MIC ([1]; Bacillus subtilis) [µg/mL] | MIC ([2]; Enterococcus faecium) [µg/mL] | MIC [5] [µg/mL] | MIC ([7]; Pseudomonas aeruginosa) [µg/mL] | MIC ([9]; Enterococcus faecium) [µg/mL]
1 | CC(=O)Nc1ccc2c(c1)[nH]c1nccc(Nc3ccc(C(=O)O)cc3)c12 [Example 8, 4-((7-acetamido-9H-pyrido[2,3-b]indol-4-yl)amino)benzoic acid] | 0.25 (≈ 0.694 µM) | 1 (≈ 2.77 µM) | 0.25 (≈ 0.694 µM) | 125 | 1 (≈ 2.77 µM) | 1 (≈ 2.77 µM) | 0.25 (≈ 0.694 µM) | 4 (≈ 11.1 µM) | 0.5 (≈ 1.39 µM) | 8 (≈ 22.2 µM) | 0.25 (≈ 0.694 µM) | – | – | – | – | –
2 | CN[C@H](CC(C)C)C(=O)N[C@H]1C(=O)N[C@@H](CC(N)=O)C(=O)N[C@H]2C(=O)N[C@H]3C(=O)N[C@H](C(=O)N[C@H](C(=O)O)c4cc(O)cc(O)c4-c4cc3ccc4O)[C@H](O)c3ccc(c(Cl)c3)Oc3cc2cc(c3O[C@@H]2O[C@H](CO)[C@@H](O)[C@H](O)[C@H]2O[C@H]2C[C@](C)(N)[C@H](O)[C@H](C)O2)Oc2ccc(cc2Cl)[C@H]1O [Vancomycin, reference compound] | – | – | – | – | – | – | – | – | – | – | – | 0.5 (≈ 0.345 µM) | > 128 | > 128 | > 128 | 0.5 (≈ 0.345 µM)

From patent publication US11773093B1, “N-(pyrimido[2,3-b]indol-7-yl)acetamide compounds as antibacterial agents” (KING FAISAL UNIVERSITY, priority 2023, dated 2023)
